Results reported in patent publication EP4772520A1, “NOVEL PRODRUG-TYPE ANTICANCER AGENT TARGETING CANCER-SPECIFIC ENZYME ACTIVITY” (priority 2023, dated 2025).
Where “and” joins values, the source holds several entries; their conditions need not be identical. Equal entries are not always repeated.

Key:
[1] = test system: lung adenocarcinoma cell A549; assay: Cytotoxicity test by MTT assay method (A549); assay type: cell-based; details: for IC50: Homo sapiens, A549, 72 h, read-out: IC50 value
[2] = Single dose toxicity test 1 (intravenous); assay type: in vivo, Jcl: ICR mice (female); details: for symptoms immediately after administration: 200 mg/kg intravenous, improved in several hours; for Survival rate (%) (after 10 days) / Survival rate (%) (just after administration): 200 mg/kg single intravenous administration, n=10; for LD50 at 240 h: mouse, in vivo, iv, single intravenous administration, estimated
Experimental: Single dose toxicity was evaluated by intravenously administering 200 mg/kg each of the novel prodrug-type anticancer agents SN38-βGal and SN38-βGlcNAc to Jcl: ICR mice (female).

[3] = for histological findings (organ damage): summary; for biochemical test findings / blood cell test findings: vs Vehicle; for body weight loss: 40 mg/kg i.v. three times a week for three weeks, at maximum by the final day; for RETICULOCYTE COUNT: blood cell classification, Average
Experimental: For the Vehicle group, a corresponding amount of DMSO was administered.
After blood was collected on day 22 and then euthanized, the liver, kidney, and spleen were taken out and their weights were compared.

human AChE = target: T1, human AChE (Homo sapiens, UniProt P22303); assay: Evaluation of inhibitory activity on acetylcholinesterase (AChE); assay type: biochemical; details: for AChE inhibitory activity: in the presence of 10 µM of each drug; for IC50: read-out: IC50 value for AChE inhibition, 60 min value
T1 construct: purchased AnaSpec, Inc
T1 sequence (P22303 32-614): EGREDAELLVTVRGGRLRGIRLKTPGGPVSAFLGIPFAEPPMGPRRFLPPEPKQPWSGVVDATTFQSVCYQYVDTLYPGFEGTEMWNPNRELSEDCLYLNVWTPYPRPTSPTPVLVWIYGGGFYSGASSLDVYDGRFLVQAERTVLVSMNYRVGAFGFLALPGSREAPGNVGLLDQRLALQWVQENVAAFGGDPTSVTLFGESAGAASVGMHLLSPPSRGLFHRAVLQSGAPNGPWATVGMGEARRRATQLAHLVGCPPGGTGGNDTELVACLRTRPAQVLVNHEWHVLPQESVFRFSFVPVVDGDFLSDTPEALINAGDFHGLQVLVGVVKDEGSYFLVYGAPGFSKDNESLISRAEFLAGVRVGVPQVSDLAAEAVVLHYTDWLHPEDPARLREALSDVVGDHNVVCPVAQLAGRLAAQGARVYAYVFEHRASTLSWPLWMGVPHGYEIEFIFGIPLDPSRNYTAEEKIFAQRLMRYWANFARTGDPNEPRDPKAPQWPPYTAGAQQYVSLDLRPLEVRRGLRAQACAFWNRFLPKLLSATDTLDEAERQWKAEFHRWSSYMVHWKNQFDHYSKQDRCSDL
Experimental: The procedure of the specific inhibition test is shown below. • (1) A test drug at each concentration was added to a 96 well plate, and acetylcholine, an AChE substrate, and an AChE purified enzyme were added according to a protocol, using SensoLyte (registered trademark) 520 Acetylcholine esterase Activity Assay Kit Fluorometric (AnaSpec, Inc.). Neostigmine bromide known as an AChE inhibitor was used as […]. • (2) The fluorescence value at 520 nm was measured, and the IC50 value was calculated.

[4] = Evaluation of locomotion after administration of drug; assay type: in vivo; details: intravenous administration of 40 mg/kg, n = 4, 15 minutes from 1 minute after administration
Experimental: The momentum after drug administration was compared (n = 4).
Fig. 22 illustrates results of locomotion evaluation after drug administration. a of Fig. 22 illustrates the head movement distance for 15 minutes from 1 minute after administration in each group. The drug is administered intravenously at 40 mg/kg (n = 4). b of Fig. 22 illustrates an example of a movement trajectory for 15 minutes from 1 minute after administration in each group. c of Fig. 22 illustrates an example of a movement distance for each time from 1 minute after administration in each group.

[5] = test system: luciferase-expressing A549 cells; assay: Therapeutic experiment 1 in A549 lung cancer orthotopic transplantation model; assay type: in vivo, mice; details: 40 mg/kg i.v., 3 times a week; for tumor suppression effect (luciferin/luciferase chemiluminescence): vs Vehicle
Experimental: The administration form was intravenous administration (i.v.). The dose was 40 mg/kg, and administration was performed 3 times a week for 4 times. The tumor burden was determined by evaluating the luciferin/luciferase chemiluminescence value. The endpoint was the time point of significant body weight loss (20% loss).
A specific procedure of the therapeutic experiment is shown below. • (1) Model mice were created by the following operation using BALB/cAJcl-nu/nu (7 weeks old). The skin of the chest was incised, and the skin was subcutaneously detached, then luciferase-expressing A549 cells 2 × 10^7 cells/mL (50 µL, 5% Matrigel) was injected from the intercostal pleura to the left lung. After injection, the skin was sutured. • (2) After 17 days, the formation of cancer was confirmed by luciferin/luciferase chemiluminescence, and the intravenous administration of the drug was started. The drug was prepared by dissolving a 200 mM of DMSO stock in PBS, and administered in a total amount of 100 µL. 3 mg (200 µL) of luciferin was administered by intraperitoneal administration, and anesthetized with isoflurane. Thereafter, the chemiluminescent value at 20 minutes after administration was measured by an in vivo imaging device. • (3) On the day of evaluation, the tumor burden was evaluated by the body weight and the luciferin/luciferase chemiluminescence.

in vivo = details: for AUC(0-t) at 6 h: AUC0-6h (μg・h/mL); for clearance: CLtot (mL/min/kg); for AUC0-6h (μg・h/mL): 360 min
Excerpt: A specific test procedure is shown below. • (1) Three marmosets (6 males in total) in each of the SN38-βGal and SN38-βGlcNAc administration groups were sequentially retained using a retention device, and a tail of the administration site was shaved. • (2) The base of the tail from the injection site was avascularized to cause blood vessels to become engorged. Veins running on both left and right sides of the tail were checked, the puncture site was disinfected with alcohol cotton, and then administration was performed with a 27 G injection needle using one of the left and right blood vessels. For administration, 1.0 mg/mL of prepared administration solution of SN38-βGal or SN38-βGlcNAc was intravenously administered at an injection rate of 350 µL/min (about 11 minutes: due to different body weight, the time τ actually required for the injection was accurately recorded for each individual) by an infusion pump at a dose of 10 mg/10 mL/kg. • (3) Immediately after the start of infusion administration, about 220 µL of blood was collected with a heparinized syringe at 5, 15, 30, 45 minutes, 1, 2, 3, and 6 hours, and centrifuged at 1200 G and 4°C for 15 minutes to collect plasma. • (4) After the plasma was dispensed into the microtube, 100 µL of the plasma was accurately taken, and a 200 µM of inhibitor N-(n-nonyl) deoxygalactonoijirimycin solution in the SN38-βGal administration group, a 200 µM of inhibitor PUGNAc solution in the SN38-βGlcNAc administration group, and 100 µL of each were added to the microtube dispensed in advance and mixed quickly.

[6] = marmoset, in vivo, iv, 10 mg/kg, prodrug, 11 min infusion, N=3, average
[7] = marmoset, in vivo, iv, 10 mg/kg, Vd (L/kg), prodrug, 11 min infusion, N=3, average
[8] = marmoset, in vivo, iv, 10 mg/kg, Vd (L/kg), prodrug, 10 mg/kg i.v., individual marmosets
[9] = marmoset, in vivo, iv, 10 mg/kg, blood half-life, prodrug, 10 mg/kg i.v., 11 minutes infusion
[10] = marmoset, in vivo, iv, 10 mg/kg, t1/2 (h), prodrug, 11 min infusion, N=3, average
[11] = marmoset, in vivo, iv, 10 mg/kg, t1/2 (h), prodrug, 10 mg/kg i.v., individual marmosets
[12] = prodrug, 10 mg/kg i.v., individual marmosets, 10 mg/kg
[13] = marmoset, in vivo, iv, 10 mg/kg, prodrug, 10 mg/kg i.v., individual marmosets

CCc1c2c(nc3ccc(O[C@@H]4O[C@H](CO)[C@H](O)[C@H](O)[C@H]4O)cc13)-c1cc3c(c(=O)n1C2)COC(=O)[C@]3(O)CC [SN38-βGal]
IC50 [1]: 3.38 µM | symptoms immediately after administration [2]: reduced locomotor activity, tremor, and prone states were found in more than half of the mice in both groups | Survival rate (%) (after 10 days) [2]: 100% | Survival rate (%) (just after administration) [2]: 100% | LD50 at 240 h [2]: ≥ 200 mg/kg | Histological findings in kidney ([3]; 40 mg/kg i.v. repeated): organ damage to the kidney was not observed | Histological findings in large intestine ([3]; 40 mg/kg i.v. repeated): the side effects were very mild as compared with CPT-11 | Histological findings in liver ([3]; 40 mg/kg i.v. repeated): organ damage to the liver was not observed | Histological findings in small intestine ([3]; 40 mg/kg i.v. repeated): the side effects were very mild as compared with CPT-11 | Histological findings in spleen ([3]; 40 mg/kg i.v. repeated): organ damage to the spleen was very mild | histological findings (organ damage) ([3]; 40 mg/kg i.v. repeated): no organ damage was observed in the small intestine, large intestine, kidney, liver, and spleen | biochemical test findings ([3]; 40 mg/kg i.v. repeated): a slight decrease in AST and ALT values was observed | blood cell test findings ([3]; 40 mg/kg i.v. repeated): a slight increase in eosinophils and a decrease in basophils were estimated | body weight loss [3]: significant body weight loss was not observed | RETICULOCYTE COUNT ([3]; 40 mg/kg i.v. repeated): 220300 µL⁻¹ | AChE inhibitory activity (human AChE): did not inhibit AChE activity in this concentration range | IC50 (human AChE): 1560 µM | locomotion after drug administration [4]: these decreases in the locomotion were hardly observed | body weight [5]: the slight body weight loss was found, but it was not remarkable as in CPT-11 | tumor suppression effect (luciferin/luciferase chemiluminescence) [5]: tended to suppress tumor growth as in the CPT-11 administration group | abnormalities after drug administration (in vivo; 10 mg/kg i.v.): remarkable abnormalities, vomiting, and the like were not found in any individual | AUC(0-t) at 6 h (in vivo; [6]): 52700 ng·h/mL | clearance (in vivo; [6]): 3.5 mL/min/kg | Vd (in vivo; [7]): 0.215 L/kg | Vd (in vivo; [8]): 0.205 L/kg | half-life (in vivo; [9]): 58.3 min | half-life (in vivo; [10]): 58.3 min | half-life (in vivo; [11]): 49.9 min | CLtot (in vivo; [12]): 3.4 mL/min/kg and 2.2 mL/min/kg and 4.8 mL/min/kg | Vd (in vivo; [12]): 0.169 L/kg and 0.271 L/kg | t1/2 (in vivo; [12]): 58.7 min and 66.3 min | AUC0-6h (μg・h/mL) (in vivo; [12]): 48.57 μg・h/mL and 75.13 μg・h/mL and 34.47 μg・h/mL

CCc1c2c(nc3ccc(O[C@@H]4O[C@H](CO)[C@@H](O)[C@H](O)[C@H]4NC(C)=O)cc13)-c1cc3c(c(=O)n1C2)COC(=O)[C@]3(O)CC [SN38-βGlcNAc]
cytotoxicity in the presence of inhibitor ([1]; A549, inhibitor PUGNAc of β-hexosaminidase): cytotoxicity was significantly reduced | IC50 [1]: 1.35 µM | symptoms immediately after administration [2]: reduced locomotor activity, tremor, and prone states were found in more than half of the mice in both groups | Survival rate (%) (after 10 days) [2]: 100% | Survival rate (%) (just after administration) [2]: 100% | LD50 at 240 h [2]: ≥ 200 mg/kg | Histological findings in kidney ([3]; 40 mg/kg i.v. repeated): organ damage to the kidney was not observed | Histological findings in large intestine ([3]; 40 mg/kg i.v. repeated): the side effects were very mild as compared with CPT-11 | Histological findings in liver ([3]; 40 mg/kg i.v. repeated): organ damage to the liver was not observed | Histological findings in small intestine ([3]; 40 mg/kg i.v. repeated): the side effects were very mild as compared with CPT-11 | Histological findings in spleen ([3]; 40 mg/kg i.v. repeated): organ damage to the spleen was very mild | organ weight (liver, kidney, spleen) ([3]; 40 mg/kg i.v. repeated, day 22, vs Vehicle): An increase in spleen weight was observed | histological findings (organ damage) ([3]; 40 mg/kg i.v. repeated): no organ damage was observed in the small intestine, large intestine, kidney, liver, and spleen | biochemical test findings ([3]; 40 mg/kg i.v. repeated): slight increases in urea nitrogen and creatinine were observed | blood cell test findings ([3]; 40 mg/kg i.v. repeated): an increase in eosinophils and a decrease in basophils were estimated | body weight loss [3]: significant body weight loss was not observed | RETICULOCYTE COUNT ([3]; 40 mg/kg i.v. repeated): 242300 µL⁻¹ | AChE inhibitory activity (human AChE): did not inhibit AChE activity in this concentration range | IC50 (human AChE): 1440 µM | locomotion after drug administration [4]: these decreases in the locomotion were hardly observed | body weight [5]: the slight body weight loss was found, but it was not remarkable as in CPT-11 | tumor suppression effect (luciferin/luciferase chemiluminescence) [5]: tended to suppress tumor growth as in the CPT-11 administration group | abnormalities after drug administration (in vivo; 10 mg/kg i.v.): remarkable abnormalities, vomiting, and the like were not found in any individual | AUC(0-t) at 6 h (in vivo; [6]): 78300 ng·h/mL | AUC(0-t) at 6 h (in vivo; [13]): 73500 ng·h/mL | AUC (in vivo; marmoset, in vivo, iv, 10 mg/kg, AUC0- (μg・h/mL), prodrug, 10 mg/kg i.v., individual marmosets): 73800 ng·h/mL | clearance (in vivo; [6]): 2.2 mL/min/kg | clearance (in vivo; [13]): 2.3 mL/min/kg | Vd (in vivo; [7]): 0.142 L/kg | Vd (in vivo; [8]): 0.149 L/kg | half-life (in vivo; [9]): 47.6 min | half-life (in vivo; [10]): 47.6 min | half-life (in vivo; [11]): 43.9 min | CLtot (in vivo; [12]): 2.0 mL/min/kg | Vd (in vivo; [12]): 0.134 L/kg and 0.143 L/kg | t1/2 (in vivo; [12]): 49.7 min and 49.3 min | AUC0-6h (μg・h/mL) (in vivo; [12]): 84.34 μg・h/mL and 76.92 μg・h/mL
